Results published in publication PMC11678328, “Phosphine Oxide Indenoquinoline Derivatives: Synthesis and Biological Evaluation as Topoisomerase I Inhibitors and Antiproliferative Agents” (Molecules, 2024).

Assays:
[1] = tested on: MRC-5, lung fibroblast cells; assay: CCK-8 cytotoxicity assay, MRC5; format: cell-based, human; details: Homo sapiens; MRC5 non-cancerous cells, 48h, CCK-8
Description: (§1) The cytotoxic effects of the newly synthesized diphenyl(tetrahydro-5H-indeno[2,1-c]quinolin-2-yl)phosphine oxides 8, diphenyl(7H-indeno[2,1-c]quinolin-2-yl)phosphine oxides 9, and diphenyl(7-oxo-7H-indeno[2,1-c]quinolin-2-yl)phosphine oxides 10 derivatives were studied against several human cell lines: A549 (carcinomic human alveolar basal epithelial cell), SKOV3 (human ovarian carcinoma), and HEK293 (human embryonic kidney). Furthermore, in order to analyze the selective cytotoxicity facing exclusively cancerous cell lines, toxicity against a non-cancerous cell line (MRC-5, lung fibroblast cells) was also evaluated (Table 3). The cell counting kit (CCK-8) assay was employed to assess the growth inhibition and cell proliferation inhibitory activities of the compounds, which are described in Table 3 as IC50 values.
(§2) Cells were cultured according to the supplier’s instructions. Cells were seeded in 96-well plates at a density of 1.5–3 × 10^3 cells per well and incubated overnight in 0.1 mL of media supplied with 10% Fetal Bovine Serum (Lonza) in a 5% CO2 incubator at 37 °C. On day 2, drugs were added and the samples were incubated for 48h. After treatment, 10 μL of the cell counting kit-8 was added into each well for an additional 2h incubation at 37 °C. The absorbance of each well was determined by an Automatic Elisa Reader System at 450 nm wavelength (deducting 620 nm). CPT was used as the positive control.

human TOP1 [2] = molecular target: T1, human TOP1 (Homo sapiens, UniProt P11387); assay: TOP1 supercoiled plasmid DNA relaxation assay; format: biochemical; details: compounds at 100 μM, semiquantitative
T1 construct: made in house; host or cells: Saccharomyces cerevisiae TOP1 null strain RS190, plasmid pHT143 (GAL promoter)
T1 sequence (P11387 1-765): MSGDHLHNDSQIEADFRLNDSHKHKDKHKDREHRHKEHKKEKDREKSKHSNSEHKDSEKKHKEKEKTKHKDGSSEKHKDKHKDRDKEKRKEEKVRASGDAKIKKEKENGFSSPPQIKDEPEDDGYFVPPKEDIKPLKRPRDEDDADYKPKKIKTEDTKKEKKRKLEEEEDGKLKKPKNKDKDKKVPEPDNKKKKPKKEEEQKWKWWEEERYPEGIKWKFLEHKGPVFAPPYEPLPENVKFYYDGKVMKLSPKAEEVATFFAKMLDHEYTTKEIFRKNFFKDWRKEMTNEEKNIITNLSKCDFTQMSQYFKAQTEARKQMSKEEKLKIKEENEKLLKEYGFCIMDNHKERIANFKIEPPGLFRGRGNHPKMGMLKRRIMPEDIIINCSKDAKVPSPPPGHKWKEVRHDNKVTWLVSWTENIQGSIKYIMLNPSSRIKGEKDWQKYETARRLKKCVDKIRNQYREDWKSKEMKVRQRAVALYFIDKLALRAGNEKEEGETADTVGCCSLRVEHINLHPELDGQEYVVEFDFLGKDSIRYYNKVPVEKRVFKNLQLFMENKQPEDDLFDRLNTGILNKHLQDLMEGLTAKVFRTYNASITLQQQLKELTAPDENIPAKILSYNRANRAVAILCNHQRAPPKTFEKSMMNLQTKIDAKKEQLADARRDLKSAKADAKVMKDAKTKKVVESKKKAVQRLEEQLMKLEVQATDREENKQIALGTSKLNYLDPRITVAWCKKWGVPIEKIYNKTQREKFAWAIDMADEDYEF
Description: The effect of the previously prepared compounds as TOP1 inhibitors was studied. A conventional supercoiled plasmid relaxation assay was used to determine if the newly fused tetrahydroindenoquinolines 8, more aromatic indenoquinolines 9, and carbonyl derivatives 10 with phosphine oxide substituents inhibit human TOP1 activity by converting supercoiled plasmid DNA to its relaxed form. In these experiments, compound samples were mixed with the enzyme followed by the addition of a supercoiled plasmid DNA substrate, and incubation continued for increasing time intervals (1 min, 3 min, and 5 min). The reaction was terminated by the addition of SDS. DNA relaxation products were then resolved by 1% agarose electrophoresis gel and visualized by gel red staining.
The yeast Saccaromyces cerevisiae TOP1 null strain RS190, which was used for the expression of recombinant human TOP1, was a kind gift from R. Sternglanz (State University of New York, Stony Brook, NY, USA). Plasmid pHT143, for the expression of recombinant TOP1 under the control of an inducible GAL promoter, was described. The plasmids pHT143 were transformed into the yeast S. cerevisiae strain RS190. The proteins were expressed and purified by affinity chromatography essentially as described. The protein concentrations were estimated from Coomassie blue-stained SDS/polyacrylamide gels by comparison to serial dilutions of bovine serum albumin (BSA).
TOP1 activity was assayed using a DNA relaxation assay by incubating 110 ng/mL of TOP1 with 0.5 µg of negatively supercoiled pUC18 in […] of reaction buffer (20 mM Tris HCl, 0.1 mM Na2EDTA, 10 mM MgCl2, […] acetylated BSA, and 150 mM KCl, pH 7.5). The effect of the synthesized phosphorylated derivatives 8, 9, and 10 on the TOP1 activity was measured by adding different concentrations of the compounds, at different time points, as indicated in the text. The reactions were performed at 37 °C stopped by the addition of 0.5% SDS after the indicated time intervals. The samples were protease-digested and electrophoresed in a horizontal 1% agarose gel in 1xTBE (50 mM Tris, 45 mM boric acid, 1 mM EDTA) at 25V during 18h. The gel was stained with gel red (BIOTIUM, 5 mg/mL), destained with water, and photographed under UV illumination. Since all drugs were dissolved in dimethyl sulfoxide (DMSO), a […] control sample containing the same DMSO concentration as the samples incubated with the drugs was included in all experiments.

[3] = tested on: A549 (carcinomic human alveolar basal epithelial cell); assay: CCK-8 cytotoxicity assay, A549; format: cell-based; details: Homo sapiens, A549, 48 h, A549 cells, 48h, CCK-8
Description: as §1, §2

[4] = tested on: SKOV3 (human ovarian carcinoma); assay: CCK-8 cytotoxicity assay, SKOV3; format: cell-based; details: SK-OV-3, SKOV3 cells, 48h
Description: as §1, §2

[5] = tested on: HEK293 (human embryonic kidney); assay: CCK-8 cytotoxicity assay, HEK293; format: cell-based; details: HEK293 cells, 48h
Description: as §1, §2

human TOP1 [6] = molecular target: T1, human TOP1; assay: TOP1 supercoiled plasmid DNA relaxation assay; format: biochemical; details: 30 min reaction; compounds at 100 μM; semiquantitative

- TOP1 Inhibition 1 min (human TOP1 [2]; 1 min reaction): + (weak inhibition)
- TOP1 Inhibition 3 min (human TOP1 [2]; 3 min reaction): + (weak inhibition)
- TOP1 Inhibition 5 min (human TOP1 [2]; 5 min reaction): + (weak inhibition)
- TOP1 Inhibition 30 min (human TOP1 [6]): + (weak inhibition)
SMILES: O=C1c2ccccc2-c2c1c(-c1cccc3ccccc13)nc1ccc(P(=O)(c3ccccc3)c3ccccc3)cc21 [Compound 10g, (6-(Naphth-1-yl)-7-oxo-7H-indeno[2,1-c]quinolin-2-yl)diphenylphosphine oxide]
- IC50 [1]: > 50 µM
- IC50 [3]: > 50 µM
- IC50 [4]: > 50 µM
- IC50 [5]: > 50 µM
